Results reported in US12391698B2, “Substituted piperidines and piperazines and methods for the treatment of CNS disorders” (SUVEN LIFE SCIENCES LIMITED, priority 2022, dated 2025).
Where a name gives a salt, the structure may show the parent alone. Read-outs that look alike come from different tables or passages of the source.

Key:
[1] = target: T1, cloned human 5-HT1A receptor (Homo sapiens, UniProt P08908); test: Determination of Ki at 5-HT1A receptor (radioligand binding, [3H]-8-Hydroxy DPAT); conditions: HEK293-EBNA recombinant cells; [3H]-8-Hydroxy DPAT 0.8 nM; read-out: Ki h5-HT1A
T1 construct: expressed in transfected cells; host or cells: HEK293-EBNA
T1 sequence (P08908 1-422): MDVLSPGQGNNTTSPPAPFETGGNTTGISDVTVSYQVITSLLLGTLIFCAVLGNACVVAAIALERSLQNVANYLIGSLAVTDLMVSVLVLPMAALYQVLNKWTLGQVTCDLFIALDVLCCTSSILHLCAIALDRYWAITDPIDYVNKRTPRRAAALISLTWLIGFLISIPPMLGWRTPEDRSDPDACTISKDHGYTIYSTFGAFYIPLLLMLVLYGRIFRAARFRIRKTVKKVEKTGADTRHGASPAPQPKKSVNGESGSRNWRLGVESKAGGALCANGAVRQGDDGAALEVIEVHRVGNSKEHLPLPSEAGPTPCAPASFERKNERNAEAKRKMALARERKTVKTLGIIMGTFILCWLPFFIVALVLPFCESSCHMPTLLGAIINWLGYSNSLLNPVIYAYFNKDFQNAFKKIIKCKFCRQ
Protocol: (§1) Compounds were tested according to the following procedure.
(§2) • Receptor source: Recombinant mammalian cells (HEK293-EBNA) • Radioligand: [^3H]-8-Hydroxy DPAT (200 Ci/mmol) • Final ligand concentration: 0.8 nM • Non-specific determinant: 0.1 mM U92016A • Reference compound: U92016A • Positive control: U92016A Incubation Conditions:
(§3) Reactions were carried out in buffer with pH 7.4 containing 50 mM Tris-HCl, 0.5 mM EDTA, 10 mM MgSO4, 0.1% Ascorbic acid for 2 h at r.t. The reaction was terminated by rapid vacuum filtration onto the glass fiber filters. Radioactivity trapped onto the filters was determined and compared to the control values in order to ascertain any interactions of the test compound(s) with cloned human 5-HT1A receptor binding site.

[2] = target: T2, cloned human 5-HT2A receptor (Homo sapiens, UniProt P28223); test: Determination of Ki at 5-HT2A receptor (radioligand binding, [3H]-Ketanserine); conditions: CHO-K1 recombinant cells; [3H]-Ketanserine 1.25 nM; read-out: Ki h5-HT2A
T2 construct: expressed in transfected cells; host or cells: CHO-K1
T2 sequence (P28223 whole entry): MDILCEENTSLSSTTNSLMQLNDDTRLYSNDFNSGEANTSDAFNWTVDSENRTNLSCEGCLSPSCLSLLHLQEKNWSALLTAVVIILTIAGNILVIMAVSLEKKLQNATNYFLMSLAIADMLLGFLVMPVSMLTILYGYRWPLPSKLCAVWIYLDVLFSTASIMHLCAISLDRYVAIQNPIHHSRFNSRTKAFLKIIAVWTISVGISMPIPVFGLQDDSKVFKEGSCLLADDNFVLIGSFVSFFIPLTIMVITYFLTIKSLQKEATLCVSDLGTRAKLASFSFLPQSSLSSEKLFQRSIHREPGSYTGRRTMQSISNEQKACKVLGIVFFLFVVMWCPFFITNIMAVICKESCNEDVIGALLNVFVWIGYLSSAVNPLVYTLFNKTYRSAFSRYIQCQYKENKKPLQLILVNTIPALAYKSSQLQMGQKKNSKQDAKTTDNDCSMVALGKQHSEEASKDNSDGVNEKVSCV
Protocol: as §1
as §2, with “(CHO-K1)” for “(HEK293-EBNA)”, “[^3H]-Ketanserine (41.9” for “[^3H]-8-Hydroxy DPAT (200”, “1.25” for “0.8”, “1-Napthyl piperazine (1-NP)” for “U92016A”
as §3, with “4” for “0.5”, “CaCl2),” for “EDTA, 10 mM MgSO4,”, “1” for “2”, “5-HT2A” for “5-HT1A”

[3] = target: cloned human SERT receptor (Homo sapiens, UniProt P31645); test: Determination of Ki at SERT receptor (SPA binding, [3H]-Citalopram); conditions: HEK293 recombinant cells, [3H]-Citalopram 2 nM, read-out: Ki hSERT
Chain of cloned human SERT receptor (P31645 whole entry): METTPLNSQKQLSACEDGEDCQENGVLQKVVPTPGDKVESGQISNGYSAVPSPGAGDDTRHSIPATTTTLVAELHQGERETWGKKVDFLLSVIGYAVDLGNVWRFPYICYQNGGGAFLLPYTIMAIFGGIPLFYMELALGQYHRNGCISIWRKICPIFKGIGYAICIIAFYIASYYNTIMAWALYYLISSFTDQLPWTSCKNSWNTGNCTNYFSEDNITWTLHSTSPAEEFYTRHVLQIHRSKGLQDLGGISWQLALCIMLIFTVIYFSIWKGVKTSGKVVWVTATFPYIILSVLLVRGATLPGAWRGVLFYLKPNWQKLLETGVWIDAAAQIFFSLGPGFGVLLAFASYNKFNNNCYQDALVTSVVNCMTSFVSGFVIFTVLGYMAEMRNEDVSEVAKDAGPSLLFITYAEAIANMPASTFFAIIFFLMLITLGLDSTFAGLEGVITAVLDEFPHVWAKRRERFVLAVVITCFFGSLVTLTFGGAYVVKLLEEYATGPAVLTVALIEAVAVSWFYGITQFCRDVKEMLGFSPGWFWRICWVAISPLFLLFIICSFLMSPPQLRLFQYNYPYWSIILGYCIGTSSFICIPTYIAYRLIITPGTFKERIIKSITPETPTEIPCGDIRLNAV
Protocol: as §1
• Receptor source: Recombinant mammalian cells (HEK293) • Radioligand: [^3H]-Citalopram (80.8 Ci/mmol) • Final ligand concentration: 2 nM • Non-specific determinant: 0.1 mM Venlafaxine • Reference compound: Venlafaxine • Positive control: Venlafaxine Incubation Conditions:
Reactions were carried out in buffer with pH 7.4 containing 50 mM Tris-HCl, 150 mM NaCl, 5 mM KCl and scintillation proximity assay (SPA) beads (0.1 mg/well) for 3 h at r.t. Radioactivity proximal to SPA beads was determined by scintillation proximity assay and compared to the control values in order to ascertain any interactions of the test compound(s) with cloned human SERT receptor binding site.
Reference: Journal of Pharmacology and Experimental Therapeutics, 1987, 242 (1), 364-371.

[4] = target: T3, hD2S (cloned human dopamine D2S receptor) (Homo sapiens, UniProt P14416); test: Determination of Ki at D2S receptor (radioligand binding, [3H]-Raclopride); conditions: CHO-K1 recombinant cells; [3H]-Raclopride 4 nM; read-out: Ki hD2S
T3 construct: expressed in transfected cells; host or cells: CHO-K1
T3 sequence (P14416 1-414 isoform P14416-2): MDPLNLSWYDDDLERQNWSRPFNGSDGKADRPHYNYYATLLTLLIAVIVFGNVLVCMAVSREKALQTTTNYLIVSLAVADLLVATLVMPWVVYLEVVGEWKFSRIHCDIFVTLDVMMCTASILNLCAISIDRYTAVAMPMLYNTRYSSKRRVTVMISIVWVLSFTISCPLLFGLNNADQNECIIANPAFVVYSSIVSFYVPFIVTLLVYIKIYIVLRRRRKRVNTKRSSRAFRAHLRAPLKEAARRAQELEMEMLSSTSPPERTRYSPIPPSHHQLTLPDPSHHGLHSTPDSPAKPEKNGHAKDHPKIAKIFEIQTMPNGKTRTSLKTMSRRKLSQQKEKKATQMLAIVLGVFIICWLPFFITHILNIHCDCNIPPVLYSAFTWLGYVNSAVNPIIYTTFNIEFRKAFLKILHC
Protocol: as §1
• Receptor source: Recombinant mammalian cells (CHO-K1) • Radioligand: [^3H]-Raclopride (80.8 Ci/mmol) • Final ligand concentration: 4 nM • Non-specific determinant: 0.1 mM Haloperidol • Reference compound: Haloperidol • Positive control: Haloperidol Incubation Conditions:
as §3, with “120” for “0.5”, “NaCl, 5” for “EDTA, 10”, “KCl, 5 mM MgCl2, 1 mM EDTA” for “MgSO4, 0.1% Ascorbic acid”, “dopamine […]” for “5-HT1A”

[5] = Rodent pharmacokinetic study; format: in vivo, Male Wistar rats; conditions: rat, plasma, mean ± S.D, n = 3; for bioavailability: oral 3 mg/kg vs intravenous 1 mg/kg, read-out: F (Bioavailability)
Protocol: Male Wistar rats (260±50 g) were used as experimental animals. Animals were housed individually in polypropylene cage. Two days prior to study, male Wistar rats were anesthetized with isoflurane for surgical placement of jugular vein catheter. Rats were randomly divided for oral (3 mg/kg) and intravenous (1 mg/kg) dosing (n=3/group) and fasted overnight before oral dosing (p.o.). However, food and water were provided ad libitum to the rats allocated for intravenous dosing.
At pre-determined time points, blood samples were collected through jugular vein and replenished with an equivalent volume of normal saline. Collected blood was transferred into a labeled eppendorf tube containing 10 μL of heparin as an anticoagulant. Typically blood samples were collected at 0.08, 0.25, 0.5, 1, 2, 4, 6, 8, and 24 h post dose. Blood samples were centrifuged at 4000 rpm for 10 min. Plasma was separated and stored frozen at −80° C. until analysis. The concentrations of the test compounds were quantified in plasma by qualified LC-MS/MS method using suitable extraction technique. The test compounds were quantified in the calibration range around 1-1000 ng/mL in plasma. Study samples were analyzed using calibration samples in the batch and quality control samples spread across the batch.
Pharmacokinetic parameters Cmax, AUCt, t1/2. Clearance and Bioavailability (F) were calculated using standard non-compartmental model by using Phoenix WinNonlin 6.0.4 version software package.

[6] = Rodent brain penetration study; format: in vivo; conditions: rat, brain/plasma, po, fed male Wistar rats, 3 mg/kg p.o., mean ± S.D, n = 3, read-out: Rat Brain Penetration (Cbrain/Cplasma) at 3 mg/kg, p.o. @ 1 h
Protocol: Male Wistar rats (260±40 g) were used as experimental animals. Three animals were housed in each cage. Animals were given water and food ad libitum throughout the experiment and maintained on a 12 h light/dark cycle.
Brain penetration was determined in discrete manner in rats. One day prior to dosing, male Wistar rats were acclimatized and randomly grouped according to their body weight. At each time point (0.50, 1 and 2 h), n=3 animals were used.
The test compounds were suitably preformulated and administered orally at (free base equivalent) 3 mg/kg. Blood samples were removed via cardiac puncture under isoflurane anesthesia. The animals were sacrificed to collect brain tissue. Plasma was separated and brain samples were homogenized. Plasma and brain homogenates were stored frozen at −20° C. until analysis. The concentrations of the test compounds in plasma and brain were determined using LC-MS/MS method.
The test compounds were quantified in plasma and brain homogenate by qualified LC-MS/MS method using suitable extraction technique in the calibration range of 1-500 ng/mL. Study samples were analyzed using calibration samples in the batch and quality control samples spread across the batch. Extent of brain-plasma ratio (Cbrain/Cplasma) was calculated.

[7] = target: T4, recombinant rat 5-HT7 receptor (Rattus norvegicus, UniProt P32305); test: Determination of Kb at 5-HT7 receptor, pCRE-Luc reporter gene assay in CHO cells; format: cell-based
T4 construct: expressed in transfected cells
T4 sequence (P32305 whole entry): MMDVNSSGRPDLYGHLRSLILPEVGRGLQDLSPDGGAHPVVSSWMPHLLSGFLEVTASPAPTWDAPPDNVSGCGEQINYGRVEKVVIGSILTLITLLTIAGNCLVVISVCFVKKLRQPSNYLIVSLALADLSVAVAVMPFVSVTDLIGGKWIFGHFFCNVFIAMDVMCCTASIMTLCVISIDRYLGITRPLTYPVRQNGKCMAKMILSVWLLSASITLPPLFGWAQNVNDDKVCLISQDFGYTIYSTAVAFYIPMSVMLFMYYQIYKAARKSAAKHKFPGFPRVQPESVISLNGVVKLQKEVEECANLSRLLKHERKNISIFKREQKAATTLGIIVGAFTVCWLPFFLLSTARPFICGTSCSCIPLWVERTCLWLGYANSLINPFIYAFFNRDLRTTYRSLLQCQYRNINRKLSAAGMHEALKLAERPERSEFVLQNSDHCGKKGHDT
Protocol: A stable CHO cell line expressing recombinant rat 5-HT7 receptor and pCRE-Luc reporter system was used for cell-based assay. The assay offers a non-radioactive based approach to determine binding of a compound to GPCRs. In this specific assay, the level of intracellular cAMP which is modulated by activation or inhibition of the receptor is measured. The recombinant cells harbor luciferase reporter gene under the control of cAMP response element.
The above cells were grown in 96 well clear bottom white plates in Hams F12 medium containing 10% fetal bovine serum (FBS). Prior to the addition of compounds or standard agonist, cells were serum starved overnight. Increasing concentrations of test compound were added along with 1 μM of serotonin in Opti-MEM medium to the cells. The incubation was continued at 37° C. in CO2 incubator for 4 hours. Medium was removed and cells were washed with phosphate buffered saline. The cells were lysed and luciferase activity was measured in a Luminometer. Luminescence units were plotted against the compound concentrations using GraphPad Prism software. EC50 values of the compounds were defined as the concentration required in reducing the luciferase activity by 50%. The Kb values were calculated by feeding the concentration of agonist used in the assay and its EC50 value in the same software.

[8] = target: T4, recombinant rat 5-HT7 receptor; test: as above; format: cell-based; remark: listed apart in the source
[9] = tested on: dopamine receptor; test: Reserpine-induced dihydroxyphenylalanine (DOPA) accumulation assay in rat striatum; format: in vivo; conditions: apomorphine 0.1 mg/kg, s.c., rat, reserpine 5.0 mg/kg
Protocol: Reserpine (5.0 mg/kg, s.c.) was injected, after which rats were fasted for 18 h before sacrifice. […] Each rat was sacrificed and the striatum was dissected out of the whole brain on ice. Each striatum was weighed and homogenized individually in buffer containing 0.01 N hydrochloric acid and 0.2 mg/ml L-cysteine. Supernatants were subjected for quantification of DOPA using HPLC coupled to electrochemical detector.

[10] = intravenous (bolus) 1 mg/kg, male Wistar rats
[11] = oral (gavage) 3 mg/kg, fasted male Wistar rats

SMILES	Ki [1] [nM]	Ki [2] [nM]	Ki ([3]; cells printed in μM) [µM]	Ki [4] [nM]	AUC(0-t) [5, 10] [ng·h/mL]	clearance [5, 10] [mL/min/kg]	half-life [5, 10] [min]	bioavailability ([5]; male Wistar rats) [%]	AUC(0-t) [5, 11] [ng·h/mL]	Cmax [5, 11] [ng/mL]	half-life [5, 11] [min]	Kp at 1 h [6]	Ki [3] [µM]	antagonistic activity at rat recombinant 5-HT7 receptor ([7]; pCRE-Luc reporter gene assay)	Kb ([7]; rat receptor, with 1 μM serotonin, luciferase readout, read-out: Kb at 5-HT7 receptor) [nM]	agonist activity at rat recombinant 5-HT7 receptor [8]	change in reserpine-induced DOPA accumulation in striatum [9]
O=C1C[C@@H]2CCCN2C(=O)N1CCCCN1CCC(c2noc3cc(F)ccc23)CC1 [Example 5, 2-{4-[4-(6-Fluoro-benzo[d]isoxazol-3-yl)-piperidin-1-yl]-butyl}-tetrahydro-pyrrolo[1,2-c]pyrimidine-1,3-dione]	14.7	0.7	> 10	7.3	226 ± 11	74 ± 3.4	30 ± 6	22 ± 9	151 ± 61	152 ± 44	42 ± 6	1.06 ± 0.46					
O=C1C[C@@H]2COCCN2C(=O)N1CCCCN1CCN(c2nsc3ccccc23)CC1 [Example 18, 7-[4-(4-Benzo[d]isothiazol-3-yl-piperazin-1-yl)-butyl]-tetrahydro-pyrimido[6,1-c][1,4]oxazine-6,8-dione oxalate]	0.8	4.2		6.5									1.74	antagonistic activity	1	no detectable agonist activity	
O=C1C[C@H]2CCCN2C(=O)N1C[C@H]1CCCC[C@H]1CN1CCC(c2noc3cc(F)ccc23)CC1 [Example 29, 2-{2-[4-(6-Fluoro-benzo[d]isoxazol-3-yl)-piperidin-1-ylmethyl]-cyclohexylmethyl}-tetrahydro-pyrrolo[1,2-c]pyrimidine-1,3-dione oxalate]	10	0.8	> 10	0.2	291 ± 17	57 ± 3	60 ± 6	4.6 ± 2	40 ± 15	37 ± 14	54 ± 6	2.73 ± 0.23					
CC(C)N1CCN2C(=O)N(CCCCN3CCN(c4nsc5ccccc45)CC3)C(=O)C[C@H]2C1 [Example 40, 7-[4-(4-Benzo[d]isothiazol-3-yl-piperazin-1-yl)-butyl]-2-isopropyl-hexahydro-pyrazino[1,2-c]pyrimidine-6,8-dione fumarate]	0.5	1.6		5									1.25				
O=C1C[C@@H]2CCCN2C(=O)N1CCCCN1CCC(c2noc3ccccc23)CC1 [Example 42, 2-{4-[4-(Benzo[d]isoxazol-3-yl)-piperidin-1-yl]-butyl}-tetrahydro-pyrrolo[1,2-c]pyrimidine-1,3-dione, oxalate]	8.7	11.6	> 10	37.3													
O=C1C[C@@H]2CCCN2C(=O)N1CCCN1CCC(c2noc3ccccc23)CC1 [Example 44, 2-[3-(4-Benzo[d]isoxazol-3-yl-piperidin-1-yl)-propyl]-tetrahydro-pyrrolo[1,2-c]pyrimidine-1,3-dione, oxalate]	531	59.9	> 10	119													
CN1CCc2cccc3c2[C@H]1Cc1ccc(O)c(O)c1-3 [apomorphine, reference compound]																	significant decrease
